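These data come from cells grown in 96-well plates and exposed to compound for 48 hours at five concentrations. Definition used: TGI = concentration required for complete inhibition of growth.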
Key:
Assay in all cases: NCI tumour cell line growth inhibition, 48 h
PC-3 prostate = system: PC-3 prostate
NCI-H23 lung = system: NCI-H23 lung
MDA-MB-231 breast = system: MDA-MB-231 breast
DU-145 prostate = system: DU-145 prostate
SNB-19 CNS = system: SNB-19 CNS
K-562 leukemia = system: K-562 leukemia
HS 578T breast = system: HS 578T breast
SW-620 colon = system: SW-620 colon
SK-OV-3 ovarian = system: SK-OV-3 ovarian
A498 renal = system: A498 renal
CCRF-CEM leukemia = system: CCRF-CEM leukemia
UACC-62 melanoma = system: UACC-62 melanoma
TK-10 renal = system: TK-10 renal
M14 melanoma = system: M14 melanoma
EKVX NSCLC = system: EKVX NSCLC
786-0 renal = system: 786-0 renal
SK-MEL-5 melanoma = system: SK-MEL-5 melanoma
T-47D breast = system: T-47D breast
OVCAR-4 ovarian = system: OVCAR-4 ovarian
SF-268 CNS = system: SF-268 CNS
SNB-75 CNS = system: SNB-75 CNS
MOLT-4 leukemia = system: MOLT-4 leukemia
HOP-92 NSCLC = system: HOP-92 NSCLC
SK-MEL-28 melanoma = system: SK-MEL-28 melanoma
NCI/ADR-RES ovarian = system: NCI/ADR-RES ovarian
NCI-H522 lung = system: NCI-H522 lung
SK-MEL-2 melanoma = system: SK-MEL-2 melanoma
U251 CNS = system: U251 CNS
OVCAR-5 ovarian = system: OVCAR-5 ovarian
ACHN renal = system: ACHN renal
BT-549 breast = system: BT-549 breast
SR leukemia = system: SR leukemia
IGROV1 ovarian = system: IGROV1 ovarian
A549 NSCLC = system: A549 NSCLC
MDA-MB-435 = system: MDA-MB-435
LOX IMVI melanoma = system: LOX IMVI melanoma
RPMI-8226 leukemia = system: RPMI-8226 leukemia
SF-539 CNS = system: SF-539 CNS
UO-31 renal = system: UO-31 renal
MDA-N = system: MDA-N
MCF7 breast = system: MCF7 breast
KM12 colon = system: KM12 colon
HOP-62 NSCLC = system: HOP-62 NSCLC
HCT-15 colon = system: HCT-15 colon
HT29 colon = system: HT29 colon
COLO 205 colon = system: COLO 205 colon
HCT-116 colon = system: HCT-116 colon
HCC-2998 colon = system: HCC-2998 colon
OVCAR-8 ovarian = system: OVCAR-8 ovarian
UACC-257 melanoma = system: UACC-257 melanoma
CAKI-1 renal = system: CAKI-1 renal
SF-295 CNS = system: SF-295 CNS
SN12C renal = system: SN12C renal
NCI-H460 lung = system: NCI-H460 lung
NCI-H226 lung = system: NCI-H226 lung
OVCAR-3 ovarian = system: OVCAR-3 ovarian
RXF 393 renal = system: RXF 393 renal
MALME-3M melanoma = system: MALME-3M melanoma
HL-60(TB) leukemia = system: HL-60(TB) leukemia

`O=C(O)c1cc(N=Nc2ccc([N+](=O)[O-])cc2)ccc1O` was tested, and the TGI (PC-3 prostate) was over 100 µM, the TGI (NCI-H23 lung) was over 100 µM and the TGI (MDA-MB-231 breast) was over 100 µM. It also gave a TGI (DU-145 prostate) of over 100 µM, a TGI (SNB-19 CNS) of over 100 µM and a TGI (K-562 leukemia) of over 100 µM. For the same molecule, the TGI (HS 578T breast) was over 100 µM, the TGI (SW-620 colon) was over 100 µM and the TGI (SK-OV-3 ovarian) was over 100 µM. For the same molecule, the TGI (A498 renal) was 46.6 µM, the TGI (CCRF-CEM leukemia) was over 100 µM and the TGI (UACC-62 melanoma) was over 100 µM. It also gave a TGI (TK-10 renal) of 70 µM, a TGI (M14 melanoma) of over 100 µM and a TGI (EKVX NSCLC) of over 100 µM. The TGI (786-0 renal) was over 100 µM, the TGI (SK-MEL-5 melanoma) was over 100 µM and the TGI (T-47D breast) was over 100 µM. For the same molecule, the TGI (OVCAR-4 ovarian) was 80.4 µM, the TGI (SF-268 CNS) was over 100 µM and the TGI (SNB-75 CNS) was over 100 µM. The TGI (MOLT-4 leukemia) was 77 µM, the TGI (HOP-92 NSCLC) was 56.9 µM and the TGI (SK-MEL-28 melanoma) was over 100 µM. The TGI (NCI/ADR-RES ovarian) was over 100 µM, the TGI (NCI-H522 lung) was over 100 µM and the TGI (SK-MEL-2 melanoma) was 78.8 µM. It also gave a TGI (U251 CNS) of 68.4 µM, a TGI (OVCAR-5 ovarian) of over 100 µM and a TGI (ACHN renal) of over 100 µM. For the same molecule, the TGI (BT-549 breast) was over 100 µM, the TGI (SR leukemia) was over 100 µM and the TGI (IGROV1 ovarian) was over 100 µM. It also gave a TGI (A549 NSCLC) of over 100 µM, a TGI (MDA-MB-435) of over 100 µM and a TGI (LOX IMVI melanoma) of over 100 µM. The TGI (RPMI-8226 leukemia) was 53.3 µM, the TGI (SF-539 CNS) was over 100 µM and the TGI (UO-31 renal) was 67.6 µM. For the same molecule, the TGI (MDA-N) was over 100 µM, the TGI (MCF7 breast) was 87.1 µM and the TGI (KM12 colon) was over 100 µM. The TGI (HOP-62 NSCLC) was over 100 µM, the TGI (HCT-15 colon) was over 100 µM and the TGI (HT29 colon) was over 100 µM. The TGI (COLO 205 colon) was over 100 µM, the TGI (HCT-116 colon) was over 100 µM and the TGI (HCC-2998 colon) was 44.7 µM. For the same molecule, the TGI (OVCAR-8 ovarian) was over 100 µM, the TGI (UACC-257 melanoma) was 74.7 µM and the TGI (CAKI-1 renal) was over 100 µM. For the same molecule, the TGI (SF-295 CNS) was 83.7 µM, the TGI (SN12C renal) was over 100 µM and the TGI (NCI-H460 lung) was 83 µM. The TGI (NCI-H226 lung) was 79.4 µM, the TGI (OVCAR-3 ovarian) was 39.8 µM and the TGI (RXF 393 renal) was over 100 µM. The TGI (MALME-3M melanoma) was over 100 µM and the TGI (HL-60(TB) leukemia) was 73.7 µM.
`CC12NC(=C(C#N)C#N)C(C#N)=C3NC(N)=C(C#N)C(=C31)Oc1ccccc12` (stereo not drawn) gave a TGI (PC-3 prostate) of over 100 µM, a TGI (NCI-H23 lung) of over 100 µM and a TGI (MDA-MB-231 breast) of over 100 µM. For the same molecule, the TGI (DU-145 prostate) was over 100 µM, the TGI (SNB-19 CNS) was over 100 µM and the TGI (K-562 leukemia) was over 100 µM. For the same molecule, the TGI (HS 578T breast) was over 100 µM, the TGI (SW-620 colon) was over 100 µM and the TGI (SK-OV-3 ovarian) was over 100 µM. It also gave a TGI (A498 renal) of over 100 µM, a TGI (CCRF-CEM leukemia) of over 100 µM and a TGI (UACC-62 melanoma) of over 100 µM. The TGI (TK-10 renal) was over 100 µM, the TGI (M14 melanoma) was over 100 µM and the TGI (EKVX NSCLC) was over 100 µM. The TGI (786-0 renal) was over 100 µM, the TGI (SK-MEL-5 melanoma) was over 22.9 µM and the TGI (T-47D breast) was over 100 µM. The TGI (OVCAR-4 ovarian) was over 100 µM, the TGI (SF-268 CNS) was over 100 µM and the TGI (SNB-75 CNS) was over 100 µM. For the same molecule, the TGI (MOLT-4 leukemia) was over 31.6 µM, the TGI (HOP-92 NSCLC) was over 74.1 µM and the TGI (SK-MEL-28 melanoma) was over 100 µM. It also gave a TGI (NCI/ADR-RES ovarian) of over 100 µM, a TGI (NCI-H522 lung) of over 100 µM and a TGI (SK-MEL-2 melanoma) of over 80.9 µM. For the same molecule, the TGI (U251 CNS) was over 100 µM, the TGI (OVCAR-5 ovarian) was over 100 µM and the TGI (ACHN renal) was over 100 µM. It also gave a TGI (BT-549 breast) of over 100 µM, a TGI (SR leukemia) of over 100 µM and a TGI (IGROV1 ovarian) of over 100 µM. For the same molecule, the TGI (A549 NSCLC) was over 100 µM, the TGI (MDA-MB-435) was over 100 µM and the TGI (LOX IMVI melanoma) was over 100 µM. For the same molecule, the TGI (RPMI-8226 leukemia) was over 100 µM, the TGI (SF-539 CNS) was over 88.6 µM and the TGI (UO-31 renal) was over 100 µM. It also gave a TGI (MDA-N) of over 31.6 µM, a TGI (MCF7 breast) of over 100 µM and a TGI (KM12 colon) of over 100 µM. The TGI (HOP-62 NSCLC) was over 38.3 µM, the TGI (HCT-15 colon) was over 100 µM and the TGI (HT29 colon) was over 100 µM. It also gave a TGI (COLO 205 colon) of over 100 µM, a TGI (HCT-116 colon) of over 100 µM and a TGI (HCC-2998 colon) of over 100 µM. It also gave a TGI (OVCAR-8 ovarian) of over 100 µM, a TGI (UACC-257 melanoma) of over 100 µM and a TGI (CAKI-1 renal) of over 100 µM. For the same molecule, the TGI (SF-295 CNS) was over 100 µM, the TGI (SN12C renal) was over 100 µM and the TGI (NCI-H460 lung) was over 100 µM. For the same molecule, the TGI (NCI-H226 lung) was over 100 µM, the TGI (OVCAR-3 ovarian) was over 24.9 µM and the TGI (RXF 393 renal) was 6.76 µM. The TGI (MALME-3M melanoma) was over 100 µM and the TGI (HL-60(TB) leukemia) was over 74.9 µM.
